Test results taken from patent US20260083743A1, “NUCLEOSIDE DERIVATIVE FOR PREVENTING AND TREATING INFLAMMATION AND APPLICATION THEREOF” (WEST CHINA HOSPITAL OF SICHUAN UNIVERSITY, priority 2019, published 2026).

What was measured:
[1] = tested on: mouse hepatitis model; assay: Improvement effect on hepatitis, concanavalin A (ConA) mouse hepatitis model; type: in vivo, Blab/c mice; conditions: gavage 50 mg/kg, n = 10
Procedure: In this example, the improvement effect of compounds 1 19 prepared in example 1 on […] measured. (1) Animals: Adult and Healthy Male Blab/c Mice, 25 30 g. […] The blank control group was injected with equal volume of isotonic saline. After modeling, indomethacin and compounds 1 19 were given by gavage every day at the dose of 50 mg/kg. The blank control group and the model control group were given equal volume of isotonic saline. Eyeball blood and liver tissue were taken at 6 h, 12 h, 24 h and 48 h after administration. The levels of serum alanine aminotransferase (ALT) and aspartate aminotransferase (AST) were measured.

[2] = tested on: C57 mice; assay: Toxicity test, 180 consecutive days by gavage in C57 mice; type: in vivo; conditions: 100 mg/kg/D for 180 consecutive days by gavage
Procedure: In this example, the toxicities of compounds 1-19 prepared in example 1 were analyzed.
C57 mice were given compounds 1-19 at a dose of 100 mg/kg/D for 180 consecutive days by gavage. One hour after the last administration of the drug, the mice were anesthetized by intraperitoneal injection of sodium pentobarbital (40 mg/kg), placed on a constant temperature hot plate at 37±1° C., blood was taken by cardiac puncture or pathological sections were made to detect the side effects (gastrointestinal reaction, nervous system toxicity, hematological toxicity, allergic reaction, nephrotoxicity, hepatotoxicity, rash and asthma) The side effects of aspirin, ibuprofen, indomethacin, phenylbutazone, diclofenac, piroxicam and glucocorticoid groups were investigated according to the same administration method as compounds 1-19.

[3] = tested on: arthritis model; assay: Improvement effect on arthritis, sodium iodoacetate knee joint model in SD rats; type: in vivo; set-up: Pathological tissue score (joint): scale not given here; conditions: gavage every day 100 mg/kg/d; 4th week after operation; n = 10
Procedure: In this example, the improvement effect of compounds 1˜19 prepared in example 1 on arthritic was measured. (1) Animals: SD rats, four rates in one cage, were fed under the conditions of constant temperature (25±2° C.) and illumination control (12 h day/night circulation). The animals were fed with standard feed, and fed for at least 7 days to adapt environment before the experiment. […] (3) SD rats were fasted for 12 hours before operation, and weighed and recorded prior to operation. The blank control group was not treated any more. […] After anesthesia, they were fixed in the supine position. 0.1 ml of 1 g/L sodium iodoacetate solution was injected into the knee joint. From the fifth day, the animals were driven to run for 30 minutes every day, and they were allowed to move freely in the cage the rest of the time. After modeling, indomethacin and compounds 1˜19 were given by gavage every day at the dose of 100 mg/kg/d. The blank control group and the model control group were given equal volume of isotonic saline. At the 4th week after operation, the articular fluid of rats in each group was extracted to measure the content of MMP-13. The rats were killed, and the subchondral bone plate of the inner condyle of the tibia of the right knee was cut and processed into specimens, and pathological scores were made.

With `COc1ccc2c(c1)c(CC(=O)O)c(C)n2C(=O)c1ccc(Cl)cc1` [Indometacin, indometacin, reference compound] the “Aspartate aminotransferase (AST)” value ([1]; 6 h after administration) was 220 ± 19 U/L, the “Serum alanine aminotransferase (ALT)” value ([1]; 6 h after administration) was 465 ± 43 U/L and the “Aspartate aminotransferase (AST)” value ([1]; 12 h after administration) was 780 ± 82 U/L. The “Serum alanine aminotransferase (ALT)” value ([1]; 12 h after administration) was 1232 ± 113 U/L, the “Aspartate aminotransferase (AST)” value ([1]; 24 h after administration) was 1021 ± 103 U/L and the “Serum alanine aminotransferase (ALT)” value ([1]; 24 h after administration) was 2165 ± 203 U/L. The “Aspartate aminotransferase (AST)” value ([1]; 48 h after administration) was 870 ± 91 U/L, the “Serum alanine aminotransferase (ALT)” value ([1]; 48 h after administration) was 1287 ± 133 U/L and the “Occurrence rate of side effects” value [2] was 20%. The “MMP-13 content in joint fluid” value [3] was 195 ± 8 mg/L and the “Pathological tissue score (joint)” value [3] was 2.1 ± 0.3.
